Results: patent publication US20210023159A1, “METHOD FOR PROMOTING GROWTH OF AKKERMANSIA MUCINIPHILA USING MUSA FERMENTS” (TCI CO., LTD., priority 2019, published 2021)

System: Akkermansia muciniphila BCRC 81048 strain
Experiment: Prebiotic test for A. muciniphila (single candidate prebiotics, plate count)
Format: cell-based
Settings: 1% (w/w) candidate prebiotic in BHI medium, 48 h anaerobic incubation at 37° C.; control group = 100%
Text: The Akkermansia muciniphila used in the Examples described herein is the Akkermansia muciniphila BCRC 81048 strain purchased from BCRC at the Food Industry Research and Development Institute (also deposited under ATCC BAA-835). For subsequent use in the prebiotic test, the A. muciniphila strain, after thawed and activation, was inoculated at 3% and pre-cultured in BHI medium (15 g BD Difco Brain Heart Infusion broth (Thermo Fischer Scientific) dissolved in 1 L deionized water at a pH value of about 7.0) at 37° C. under an anaerobic condition (10% carbon dioxide, 10% hydrogen, and 80% nitrogen) for 48 hours.
In order to identify the nutrients beneficial to the growth of A. muciniphila, pre-cultured A. muciniphila was inoculated at 3% in BHI medium containing 1% (w/w) of the candidate prebiotics and incubated at 37° C. under anaerobic conditions for 48 hours. The bacterial culture was then spread on BHI agar plates and incubated for 72 hours for bacterial counting. The candidate prebiotic was selected from xylooligosaccharides, isomaltooligosaccharides, lactitol, inulin, fructooligosaccharides, and a banana ferment. For comparison, A. muciniphila was alternatively incubated in BHI medium without candidate prebiotics (control group).

Row | Compound | relative bacterial count of A. muciniphila
1 | OC[C@@H](O)[C@@H](O[C@@H]1O[C@H](CO)[C@H](O)[C@H](O)[C@H]1O)[C@H](O)[C@@H](O)CO [lactitol] | ~258%
2 | inulin | about 110%
